Assay results: US20260166029A1, “METHODS AND SYSTEMS FOR TREATING DISEASE USING AN ATR/CHK1 SIGNALING PATHWAY INHIBITOR” (Acrivon Therapeutics, Inc., priority 2022, published 2026)

Columns and labels:
[1] = test system: head and neck, anal, and ovarian cancer; conditions: cited from earlier work
ST1949 ovarian PDX tumor = test: Response to prexasertib treatment in ovarian PDX tumor model (Example 3); type: in vivo
Excerpt: (§1) To evaluate whether the provided Response-Predictive Signature can predict response to prexasertib treatment, the predicted response for each PDX model was compared to an experimentally determined response to prexasertib treatment for the same PDX model. The experimentally measured response was quantified as follows: if a treated tumor reduced in size/volume, then the percent regression compared to an initial volume of a treated tumor was provided, if a treated tumor increased in size/volume, then a percent ratio of the treated tumor's growth was divided by control tumor (i.e., untreated tumor) growth (d[T/C]). Negative values for regression percentage indicate response to treatment with prexasertib, while positive values indicate continued growth and non-response to prexasertib treatment. The experimentally measured response was further categorized as complete regression (near −100% regression), partial regression (−50% to −100% regression), stasis (<20% median tumor growth to −50% regression), and growth (>20% median tumor growth).

ST022 ovarian PDX tumor = test: as above; type: in vivo
Excerpt: as §1

ST255 ovarian PDX tumor = test: as above; type: in vivo
Excerpt: as §1

[2] = test system: ST1986B ovarian PDX tumor; test: as above; type: in vivo
Excerpt: as §1

ST025 ovarian PDX tumor = test: as above; type: in vivo
Excerpt: as §1

ST1526 ovarian PDX tumor = test: as above; type: in vivo
Excerpt: as §1

ST1301 ovarian PDX tumor = test: as above; type: in vivo
Excerpt: as §1

ST416 ovarian PDX tumor = test: as above; type: in vivo
Excerpt: as §1

PANC1 = PANC1 cell line; external data from prior publications; cited from earlier work

For `COc1cccc(OCCCN)c1-c1cc(Nc2cnc(C#N)cn2)n[nH]1` [prexasertib, 5-(5-(2-(3-aminopropoxy)-6-methoxyphenyl)-1H-pyrazol-3-ylamino)pyrazine-2-carbonitrile], the “Response rates in clinical trials” value ([1]; across cancers, including head and neck, anal, and ovarian cancer, single agent) is given as 5-20%, the Side effects ([1]; patients, reversible, common, hematological, mechanism-based myelosuppression) is given as “neutropenia, thrombocytopenia, and anemia” and the Response type (ST1949 ovarian PDX tumor) is given as “G (G = growth)”. The “Best d[T/C], or Regression” value (ST1949 ovarian PDX tumor; negative = regression) was 56%, the Response type (ST022 ovarian PDX tumor) was “G (G = growth)” and the “Best d[T/C], or Regression” value (ST022 ovarian PDX tumor; negative = regression) was 21.1%. The Response type (ST255 ovarian PDX tumor) was “S (S = stasis)”, the “Best d[T/C], or Regression” value (ST255 ovarian PDX tumor; negative = regression) was −8.9% and the Response type [2] was “G (G = growth)”. The “Best d[T/C], or Regression” value ([2]; negative = regression) was 35.1%, the Response type (ST025 ovarian PDX tumor) was “G (G = growth)” and the “Best d[T/C], or Regression” value (ST025 ovarian PDX tumor; negative = regression) was 48.9%. The Response type (ST1526 ovarian PDX tumor) was “PR (PR = partial regression)”, the “Best d[T/C], or Regression” value (ST1526 ovarian PDX tumor; negative = regression) was −90% and the Response type (ST1301 ovarian PDX tumor) was “S (S = stasis)”. For the same compound, the “Best d[T/C], or Regression” value (ST1301 ovarian PDX tumor; negative = regression) was 1.2%, the Response type (ST416 ovarian PDX tumor) was “S (S = stasis)” and the “Best d[T/C], or Regression” value (ST416 ovarian PDX tumor; negative = regression) was −9%. The EC50 (PANC1) was > 10 µM.
